Experimental findings from patent US20040038968A1, “Thiazolidinedione derivative and its use as antidiabetic” (priority 2000, published 2004) are described below.

Data set [1] can be described thus: Solubility in water (visual, confirmed by HPLC assay of a saturated solution). It is filed as physicochemical. Conditions: thermodynamic from solid. As for the experimental part: The solubility of the material was determined by adding water in aliquots from […] to approximately 100 mg of drug substance until the powder had dissolved. The visual solubility was confirmed by an HPLC assay of a saturated solution. Solubility: >100 mg/ml.

Data set [2] in a line: Solid state stability (storage for 1 month, HPLC assay). It counts as physicochemical. Conditions: glass bottle.
Description: The solid state stability of the drug substance was determined by storing approximately 1.0 g of the material in a glass bottle at a) 40° C./75 % Relative Humidity (RH), open exposure, for 1 month and b) at 50° C., closed, for 1 month. The material was assayed by HPLC for final content and degradation products in both cases.

With `CN(CCOc1ccc(CC2SC(=O)NC2=O)cc1)c1ccccn1.[K]` (centres unmarked) [Potassium Salt, 5-[4-[2-(N-Methyl-N-(2-pyridyl)amino)ethoxy]benzyl]thiazolidine-2,4-dione, potassium salt], in data set [1], the solubility is greater than 100 mg/mL. In addition, in data set [2] (40° C./75% RH, open exposure), the “Degradation (HPLC, degradation products)” value is reported as “No significant degradation observed” and the “HPLC assay for final content” value was 101 % initial. In addition, in data set [2] (50° C., closed), the “Degradation (HPLC, degradation products)” value was “No significant degradation observed” and the “HPLC assay for final content” value came to 99 % initial.
